Data from publication PMC8308784, “Novel Purine Chemotypes with Activity against Plasmodium falciparum and Trypanosoma cruzi” (Pharmaceuticals, 2021).
Where “and” joins values, the source holds several entries; their conditions need not be identical. Identical values can stand only once. Like-named read-outs stand apart in the source and are kept apart here.

Legend:
[1] = system: T. cruzi intracellular amastigotes; assay: Antiamastigote growth inhibition assay; assay type: cell-based; settings: intracellular amastigotes in Vero cells, mean (SD), read-out: T. cruzi IC50 b (antiamastigote assay)
Method: Vero cells were seeded in T-175 flasks (5 × 10^6 cells per flask) in DMEM supplemented with 1% penicillin–streptomycin and 10% FBS, and cultured for 24 h. Then, cells were washed once with PBS, and free-swimming trypomastigotes (1 × 10^7 trypomastigotes per flask; MOI = 1) in assay medium were added and allowed 18 h to infect. After that, infected cell monolayers were washed with PBS and detached. Cells were counted and diluted to a concentration of 5 × 10^5 cells per mL, before adding 100 µL per well to test plates already containing the drugs dispensed as described above. In all cases, we included BNZ as control drug, and each plate contained its own negative (Vero cells and parasites) and positive (Vero cells) controls.
(§1) Absorbance values derived from the anti-T. cruzi assays and fluorescence values from the anti-P. falciparum and cell toxicity assays were normalized to the controls. In the primary screening at three fixed doses, the compounds’ inhibitory activity was expressed as a percentage of the negative control (100% parasitic growth). In dose–response assays, the compounds’ IC50 and TC50 values were determined with GraphPad Prism 7 software (version 7.00, 2016), using a non-linear regression analysis model defined by the following equation: Y=100 ÷(1+10^((LogIC50−X)×HillSlope))

[2] = system: T. cruzi Tulahuen strain expressing β-galactosidase; assay: anti-T. cruzi dose-response growth inhibition assay (Vero cells plus trypomastigotes, CPRG readout); assay type: cell-based; settings: Vero cells plus trypomastigotes, MOI 1, four days, mean (SD), read-out: T. cruzi IC50 a (anti-T. cruzi assay)
Method: T. cruzi parasites from the Tulahuen strain (discrete typing unit (DTU) VI) expressing β-galactosidase were maintained in culture by the infection of LLC-MK2 cells in DMEM supplemented with 2% FBS and 1% penicillin–streptomycin–glutamine (PSG), as described in [52]. When free-swimming trypomastigotes were released to the culture medium, they were centrifuged for 7 min at 2500 rpm and allowed to swim out of the pellet. Trypomastigotes were used to maintain the parasite cycle, or for the performance of the antiparasitic assays.
T. cruzi growth was primarily analyzed under three different concentrations ([…]) of the 81 compounds. Conditions were tested in triplicate for every concentration. Z-values varied between 0.81 and 0.92 in the different plates analyzed. Selected compounds (34.6% potential hit rate) were further analyzed via standard growth inhibition assays. The Z-values of dose–response assays correlated with those previously reported. For both assays, Vero cells and trypomastigotes from the Tulahuen T. cruzi strain expressing β-galactosidase were harvested, centrifuged, and resuspended in DMEM without phenol red supplemented with 1% PSG, 2% FBS, 1 mM sodium pyruvate, and 25 mM HEPES. Vero cells and trypomastigotes were counted, diluted at a concentration of 1 × 10^6 cells/mL each, and mixed 1:1 (v/v). Then, 100 μL of that mixture was added per well to the plates already containing the compounds. Each well contained 50,000 host cells and 50,000 parasites, i.e., multiplicity of infection (MOI) = 1. BNZ was used as control of maximal drug growth inhibition in each round, whereas each plate contained its own negative control (maximum parasite growth; Vero cells plus parasites without drugs) and positive control (minimum parasite growth; trypomastigote forms alone marking an enzymatic zero time or baseline galactosidase activity). After four days at 37 °C, 50 µL of a PBS solution containing 0.25% NP40 and 500 µM chlorophenol red-β-D-galactopyranoside (CPRG) substrate were added per well [32]. Plates were incubated at 37 °C for 4 h, and their absorbance read out at 590 nm using an Epoch Gene5 spectrophotometer.
as §1

HepG2 cells = assay: HepG2 cell toxicity assay (alamarBlue); assay type: cell-based, human; settings: 2 days; minimum value of the 95% CI, except BNZ (mean (SD))
Method: (§2) Human erythrocytes were purified from B+ Rh+ blood samples and maintained at 4 °C in incomplete RPMI medium. Vero (green monkey kidney epithelial cells), LLC-MK2 (Rhesus monkey kidney epithelial cells), and HepG2 (human liver epithelial cells) cultures were cultivated in DMEM supplemented with 1% penicillin–streptomycin (PS) and 10% heat-inactivated fetal bovine serum (FBS) at 37 °C, 5% CO2, and >95% humidity, as described in [31]. HepG2 cells were also supplemented with 10% non-essential amino acids. Vero and MK2 cells were passaged twice per week at 1:12 ratios, while HepG2 cells were passaged at a 1:8 ratio.
(§3) Vero and HepG2 cells were detached, centrifuged, and resuspended in DMEM without phenol red. Cell viability was checked upon cell counting with trypan blue staining. Then, Vero and HepG2 cells were diluted at a concentration of 5 × 10^5 and 3.2 × 10^5 cells per mL, respectively, before adding 100 µL per well to the 96-well plate. Each run contained its own negative (untreated cells) and positive (medium alone) controls. Plates were incubated at 37 °C for 4 days in the case of Vero, or 2 in the case of HepG2 cells. Assay readout was made by adding 50 µL per well of a PBS solution containing 10% alamarBlue reagent (Thermo Fisher Scientific); then, plates were incubated for another 6 h at 37 °C, before recording the fluorescence intensity with a Tecan Infinite M Nano+ reader (excitation: 530 nm, emission: 590 nm).
as §1

Vero cells = assay: Vero cell toxicity assay (alamarBlue); assay type: cell-based, green monkey; settings: 4 days; minimum value of the 95% CI, except BNZ (mean (SD))
Method: as §2, §3, §1

P. falciparum 3D7 [3] = assay: P. falciparum primary screening at three fixed concentrations; assay type: cell-based; settings: average of at least three experiments
Method: (§4) Apicomplexan parasite cultures were maintained at 3% hematocrit under an atmosphere of 37 °C in 93% N2, 5% CO2, and 2% O2, following standard methods. Synchronized cultures were obtained via 5% sorbitol lysis.
[…] Conditions were tested in triplicate for every concentration, and the test was repeated when the standard deviation was above 10% for any concentration. Z-values varied between 0.83 and 0.98 in the different plates analyzed. Selected compounds (12.3% potential hit rate) were further analyzed via standard growth inhibition assays, carried out as previously described in [54]. Briefly, parasitemia was adjusted to 1–1.3%, with >90% rings after sorbitol synchronization. Two hundred microliters of parasite culture were plated in 96-well microplates and incubated for 48 h at 37 °C in the presence of decreasing concentrations of the tested compounds, in triplicate. Parasitemia was determined by fluorescence-assisted cell sorting (FACS). Non-infected RBCs and samples containing parasitized RBCs (including controls with DMSO as carrier solvent) were diluted in PBS to a final concentration of ~1–10 × 10^6 cells/mL. The cell suspension was stained with SYTO 11 (0.5 mM stock in DMSO, Thermo Fisher Scientific, Waltham, MA, USA), to a final concentration of 0.5 μM. Samples were analyzed in a Becton Dickinson FACSCalibur. Sample excitation was carried out using a 488-nm, air-cooled argon-ion laser at a power of 15 mW, using forward and side scatter to gate the RBC population, and SYTO 11 green fluorescence (530 nm, FITC filter) was collected in a logarithmic scale. The single-cell population was selected on a forward–side scattergram, and the green fluorescence from this population was analyzed. Parasitemia was expressed as the number of parasitized cells per 100 erythrocytes.
as §1

P. falciparum 3D7 [4] = assay: P. falciparum dose-response growth inhibition assay (FACS, SYTO 11); assay type: cell-based; settings: P. falciparum 3D7, 48 h; mean (SD)
Method: as §4
P. falciparum growth was primarily analyzed under 3 different concentrations ([…]) of the 81 compounds. Conditions were tested in triplicate for every concentration, and the test was repeated when the standard deviation was above 10% for any concentration. Z-values varied between 0.83 and 0.98 in the different plates analyzed. Selected compounds (12.3% potential hit rate) were further analyzed via standard growth inhibition assays, carried out as previously described in [54]. Briefly, parasitemia was adjusted to 1–1.3%, with >90% rings after sorbitol synchronization. Two hundred microliters of parasite culture were plated in 96-well microplates and incubated for 48 h at 37 °C in the presence of decreasing concentrations of the tested compounds, in triplicate. Parasitemia was determined by fluorescence-assisted cell sorting (FACS). Non-infected RBCs and samples containing parasitized RBCs (including controls with DMSO as carrier solvent) were diluted in PBS to a final concentration of ~1–10 × 10^6 cells/mL. The cell suspension was stained with SYTO 11 (0.5 mM stock in DMSO, Thermo Fisher Scientific, Waltham, MA, USA), to a final concentration of 0.5 μM. Samples were analyzed in a Becton Dickinson FACSCalibur. Sample excitation was carried out using a 488-nm, air-cooled argon-ion laser at a power of 15 mW, using forward and side scatter to gate the RBC population, and SYTO 11 green fluorescence (530 nm, FITC filter) was collected in a logarithmic scale. The single-cell population was selected on a forward–side scattergram, and the green fluorescence from this population was analyzed. Parasitemia was expressed as the number of parasitized cells per 100 erythrocytes.
as §1

With O=C(Cn1ccnc1[N+](=O)[O-])NCc1ccccc1 [BNZ, benznidazole, reference compound] the IC50 ([1]; Trypanosoma cruzi) was 1.82 µM, the IC50 ([2]; Trypanosoma cruzi, TULAHUEN, 96 h) was 1720 nM and the “HepG2 Cells TC50” value (HepG2 cells) was 255.3 (10.8) µM and 255.3 µM. The “Vero Cells TC50” value (Vero cells) was 209.5 (15.0) µM and 209.5 µM.

For CN1CCN(n2cnc3c(OCc4ccccc4)ncnc32)CC1 [Compound 29], the IC50 [1] was 157 µM, the “Primary screening, parasite growth relative to the negative control” value (P. falciparum 3D7 [3]; compound at 1 µM) was 100.58% and the “Primary screening, parasite growth relative to the negative control” value (P. falciparum 3D7 [3]; compound at 10 µM) was 98.35%. For the same compound, the “Primary screening, parasite growth relative to the negative control” value (P. falciparum 3D7 [3]; compound at 100 µM) was 63.21%, the IC50 [2] was 4860 nM and the “HepG2 Cells TC50” value (HepG2 cells) was greater than 1000 µM. For the same compound, the “Vero Cells TC50” value (Vero cells) was greater than 1000 µM.

COc1cccc(-n2cc(COc3ncnc4c3ncn4C(C)(C)C)nn2)c1 [Compound 88] was tested, and the IC50 [1] was 35.4 µM, the “Primary screening, parasite growth relative to the negative control” value (P. falciparum 3D7 [3]; compound at 1 µM) was 92.13% and the “Primary screening, parasite growth relative to the negative control” value (P. falciparum 3D7 [3]; compound at 10 µM) was 81.69%. The “Primary screening, parasite growth relative to the negative control” value (P. falciparum 3D7 [3]; compound at 100 µM) was 21.43%, the IC50 [2] was 12700 nM and the “Vero Cells TC50” value (Vero cells) was greater than 180 µM. The IC50 (P. falciparum 3D7 [4]) was 65.3 µM.

C#CCOc1ncnc2c1ncn2N1CCN(C)CC1 [Compound 93] was tested, and the IC50 [1] was 218 µM, the “Primary screening, parasite growth relative to the negative control” value (P. falciparum 3D7 [3]; compound at 1 µM) was 107.86% and the “Primary screening, parasite growth relative to the negative control” value (P. falciparum 3D7 [3]; compound at 10 µM) was 104.00%. For the same compound, the “Primary screening, parasite growth relative to the negative control” value (P. falciparum 3D7 [3]; compound at 100 µM) was 105.52%, the IC50 [2] was 1420 nM and the “Vero Cells TC50” value (Vero cells) was greater than 2000 µM.

For COc1cccc(-n2cc(COc3ncnc4c3ncn4N3CCN(C)CC3)nn2)c1 [Compound 94], the IC50 [1] was 75.1 µM, the “Primary screening, parasite growth relative to the negative control” value (P. falciparum 3D7 [3]; compound at 1 µM) was 128.84% and the “Primary screening, parasite growth relative to the negative control” value (P. falciparum 3D7 [3]; compound at 10 µM) was 125.18%. The “Primary screening, parasite growth relative to the negative control” value (P. falciparum 3D7 [3]; compound at 100 µM) was 104.00%, the IC50 [2] was 920 nM and the “Vero Cells TC50” value (Vero cells) was greater than 60 µM.
